Measurements reported in ChEMBL document CHEMBL2407006, “Selective cytotoxic effects on human breast carcinoma of new methoxylated flavonoids from Euryops arabicus grown in Saudi Arabia” (Eur J Med Chem, 2013).
Active and inactive are the calls of the source. No cut-off for these calls is given here.

Legend:
Vero = test: Antiproliferative activity against african green monkey Vero cells after 48 hrs by MTT assay; format: functional, cell-based; conditions: Chlorocebus sabaeus
MCF7 [1] = test: Antiproliferative activity against human MCF7 cells after 48 hrs by MTT assay; format: functional, cell-based; conditions: MCF7, 48 h
HepG2 = test: Antiproliferative activity against human HepG2 cells after 48 hrs by MTT assay; format: functional, cell-based; conditions: HepG2, 48 h
WI-38 = test: Antiproliferative activity against human WI38 cells after 48 hrs by MTT assay; format: functional, cell-based; conditions: WI-38, 48 h
PBL = test: Immunostimulant activity in PHA-stimulated human PBL assessed as lymphocyte transformation at 2 mM after 72 hrs by Giemsa staining method; format: functional
[2] = Antioxidant activity assessed as ABTS free radical scavenging activity by spectrophotometry; format: functional; design: concentration or dose not given beside the values
MCF7 [3] = test: Cell cycle arrest in human MCF7 cells assessed as increase in pre-G apoptotic fraction at IC50 after 24 hrs by FACs analysis relative to untreated control; format: functional, cell-based
MCF7 [4] = test: Cell cycle arrest in human MCF7 cells assessed as increase in G0/G1-phase accumulation at IC50 after 24 hrs by FACs analysis; format: functional, cell-based
MCF7 [5] = test: Cell cycle arrest in human MCF7 cells assessed as reduction in S-phase accumulation at IC50 after 24 hrs by FACs analysis; format: functional, cell-based
MCF7 [6] = test: Cell cycle arrest in human MCF7 cells assessed as increase in G0/G1-phase accumulation at IC50 after 24 hrs by FACs analysis (reference value: 55.6+/-0.6 %); format: functional
MCF7 [7] = test: Cell cycle arrest in human MCF7 cells assessed as reduction in G2/M-phase accumulation at IC50 after 24 hrs by FACs analysis relative to untreated control; format: functional, cell-based
MCF7 [8] = test: Cell cycle arrest in human MCF7 cells assessed as reduction in S-phase accumulation at IC50 after 24 hrs by FACs analysis (reference value: 34.1+/-1.1 %); format: functional; design: scale not given: the % may be the effect or the level left

| SMILES | IC50 (Vero) [µM] | IC50 (MCF7 [1]) [µM] | IC50 (HepG2) [µM] | IC50 (WI-38) [µM] | Activity (PBL) [%] | Activity [2] [%] | Activity (MCF7 [3]) | Activity (MCF7 [4]) | Activity (MCF7 [5]) | Activity (MCF7 [6]) [%] | Activity (MCF7 [7]) | Activity (MCF7 [8]) [%] |
| --- | --- | --- | --- | --- | --- | --- | --- | --- | --- | --- | --- | --- |
| COc1ccc(-c2cc(=O)c3c(O)c(OC)c(OC)c(O)c3o2)cc1OC | 100 | 35 | 45 | 95 | 15 | 78.3 | – | – | – | – | – | – |
| O=c1[nH]cc(F)c(=O)[nH]1 [FLUOROURACIL] | 8 | – | 10 | 10 | – | – | Active | Active | Active | – | – | – |
| COc1cc(O)c2c(=O)cc(-c3ccc(OC)c(OC)c3)oc2c1 | 125 | 10 | 15 | 105 | 65 | 45.8 | Active | – | – | 71.3 | Active | 13 |
| COc1ccc(-c2oc3c(OC)c(OC)c(OC)c(O)c3c(=O)c2OC)cc1 [5-HYDROXYAURANETIN] | 90 | 30 | 35 | 80 | 25 | 71.1 | – | – | – | – | – | – |
| COc1ccc(-c2cc(=O)c3c(O)c(OC)c(OC)c(OC)c3o2)cc1 [GARDENIN B] | 85 | 30 | 40 | 75 | 20 | 75.4 | – | – | – | – | – | – |
| COc1cc(-c2cc(=O)c3cc(OC)c(OC)c(O)c3o2)cc(O)c1OC | 85 | 25 | 30 | 105 | 35 | 56.8 | – | – | – | – | – | – |
| COc1ccc(-c2cc(=O)c3cc(OC)c(O)c(OC)c3o2)cc1OC | 95 | 15 | 20 | 115 | 55 | 52.7 | – | – | – | 73.4 | Active | 15.6 |
| O=C1O[C@H]([C@@H](O)CO)C(O)=C1O | – | – | – | – | – | 80 | – | – | – | – | – | – |
| COc1cc(-c2cc(=O)c3c(O)cc(OC)c(OC)c3o2)cc(OC)c1OC | 105 | 20 | 25 | 100 | 45 | 54.2 | – | – | – | – | – | – |
| C=C1C[C@]23CC[C@H]4C(CO)(CO)C(=O)CC[C@]4(C)[C@H]2CC[C@@H]1C3 | 90 | 40 | 50 | 90 | 10 | 34.3 | – | – | – | – | – | – |
